# From PubChem BioAssay AID1552 (Sanford-Burnham Center for Chemical Genomics, 2009)
# The source made the active and inactive calls. The rule behind the calls is not given here.
# Target: Ubiquitin-conjugating enzyme E2 N (Homo sapiens) (UniProt P61088)
# Assay: UBE2N binders by NMR, biophysical, purified protein (AID 1552)
# Settings: NMR binding to purified UBE2N
# Chain of Ubiquitin-conjugating enzyme E2 N (Homo sapiens) (P61088 whole entry, looked up): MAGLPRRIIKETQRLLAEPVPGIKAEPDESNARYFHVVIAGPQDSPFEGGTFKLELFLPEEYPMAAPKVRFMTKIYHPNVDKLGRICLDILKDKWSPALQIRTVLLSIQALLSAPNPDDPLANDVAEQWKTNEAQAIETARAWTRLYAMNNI
row,SMILES,Kd
1,CCS(=O)(=O)N1CCN(c2ccccc2F)CC1,> 4 mM (inactive)
2,Cc1cc(NC(=O)Cc2cccs2)no1,> 4 mM (inactive)
3,Nc1nc(-c2cccnc2)nn1C(=O)Cc1ccccc1,> 4 mM (inactive)
4,Cc1onc(-c2ccccc2)c1C(=O)Nc1ccncc1,> 4 mM (inactive)
5,CCSc1nc(C)c(CC)c(C)c1C(N)=O,> 4 mM (inactive)
6,CC(=O)O[C@@H]1C[C@@]2(C)[C@H](c3ccoc3)C[C@H]3O[C@]32[C@]2(C)C(=O)C(O)=C3C(C)(C)C(=O)C=C[C@]3(C)C12 (some centres not stated),> 4 mM (inactive)
7,COCCn1cnc2cc(C)c(C)cc21,> 4 mM (inactive)
8,Cc1nc2ccccc2c(=O)n1NC(=O)Nc1ccccc1,> 4 mM (inactive)
9,CC(=O)Nc1cccc(-c2nc3ccccc3c(=O)o2)c1,> 4 mM (inactive)
10,Cc1cc(C)c(C(N)=O)c(=S)[nH]1,> 4 mM (inactive)
11,NC(=O)Cc1nc(-c2ccccc2)cs1,> 4 mM (inactive)
12,C/C(=C\CO)CC[C@H](C)CCC[C@H](C)CCCC(C)C,> 4 mM (inactive)
13,CNC(=O)C1=NCCCc2cc(OC)c(OC)cc21,> 4 mM (inactive)
14,COc1ccc(Cl)cc1NC(=O)c1ccco1,> 4 mM (inactive)
15,CN(C)c1ccc(/C=C2/NC(=S)NC2=O)cc1,> 4 mM (inactive)
16,CC(=O)OCC(=O)[C@@]1(O)CCC2C3CC[C@@H]4C[C@H](OC(C)=O)CC[C@]4(C)C3C(=O)C[C@@]21C (some centres not stated),> 4 mM (inactive)
17,Cn1c(O)c(/C=C2\C=CC=N2)c(=O)[nH]c1=S,> 4 mM (inactive)
18,O=C(Nc1cccc2ncccc12)c1cccnc1,> 4 mM (inactive)
19,NC(=O)Cn1nc(-c2ccc(F)cc2)ccc1=O,> 4 mM (inactive)
20,CC(=O)Nc1ccc2c(c1)C(=O)N(C1CCCCC1)C2=O,> 4 mM (inactive)
21,Cc1cc(C(=O)Nc2sc(C)c(C)c2C#N)c(C)o1,> 4 mM (inactive)
22,Cc1nc2ccccc2c(=O)n1CCCn1ccnc1,> 4 mM (inactive)
23,COc1ccc(-c2ccc(SCC(N)=O)nn2)cc1,> 4 mM (inactive)

row,SMILES,Kd
1,O=c1c(-c2ccco2)[n+]([O-])c2ccccc2n1O,> 4 mM (inactive)
2,Cc1ccnc(NS(=O)(=O)c2cccs2)c1,> 4 mM (inactive)
3,Cc1nccc2c1[nH]c1ccccc12,> 4 mM (inactive)
4,Cc1nnc(SCC(=O)NCc2ccccc2)[nH]c1=O,> 4 mM (inactive)
5,NCCc1ccc(S(N)(=O)=O)cc1,> 4 mM (inactive)
6,O=C(NCO)c1ccc([N+](=O)[O-])cc1,> 4 mM (inactive)
7,Cc1cc(F)c(F)c(C(=O)NC2CC2)c1Cl,> 4 mM (inactive)
8,CC(=O)CC(=O)N1C(O)CC[N+]1(C)C (configuration not stated),> 4 mM (inactive)
9,O=CN1CCN(C(=O)c2ccccc2F)CC1,> 4 mM (inactive)
10,CCC(C)C(=O)O[C@@H]1C[C@@]2(C)[C@H](c3ccoc3)OC(=O)CC23OC2(C)O[C@]14[C@]1(C)[C@@H](CC(=O)OC)C5(C)CC1(O)[C@](O)(C5OC(=O)C1(C)OC1C)[C@@H](OC(C)=O)[C@]34O2 (some centres not stated),> 4 mM (inactive)
11,Nc1c(/C=C2\C=Nc3ccccc32)c(=O)nc2scnn12,> 4 mM (inactive)
12,Cc1ccc(C(=O)N2CC(=O)NC(=O)C2)cc1,> 4 mM (inactive)
13,C[C@@H]1O[C@@H](O[C@H]2[C@@H](Oc3cc(O)c4c(c3)O[C@H](c3ccc(O)cc3)CC4=O)O[C@H](CO)[C@@H](O)[C@@H]2O)[C@H](O)[C@H](O)[C@H]1O,> 4 mM (inactive)
14,Cc1cc(C(=O)Nc2cccnc2)cs1,> 4 mM (inactive)
15,O=C(O)c1ccc(N2CCOCC2)nc1,> 4 mM (inactive)
16,CC(C)NC(=O)Cc1c(O)c2ccccc2[nH]c1=O,> 4 mM (inactive)
17,Cc1nccn1CCC(=O)O,> 4 mM (inactive)
18,COc1c(OC)c2occc2c2oc(=O)ccc12,> 4 mM (inactive)
19,Nc1nnc(Cc2ccc(Cl)cc2)s1,> 4 mM (inactive)
20,CC(=O)c1csc(-c2cc(C)on2)n1,> 4 mM (inactive)
21,COC(=O)C[C@H]1C(C)(C)C(=O)[C@@H]2CC3=C4CC(=O)O[C@@H](c5ccoc5)[C@]4(C)CCC3C1(C)C2=O (some centres not stated),> 4 mM (inactive)
22,CC1(C(=O)O)CC2C=CC1C2 (configuration not stated),> 4 mM (inactive)
23,OC1CCC(C(F)(F)F)CC1 (configuration not stated),> 4 mM (inactive)

row,SMILES,Kd
1,CNC(=S)Nc1cccc(C(=O)O)c1,> 4 mM (inactive)
2,O=C1C2C3C=CC(C3)C2C(=O)N1c1nccs1 (configuration not stated),> 4 mM (inactive)
3,CC1CC2(NC(=O)NC2=O)C(C)CN1C (configuration not stated),> 4 mM (inactive)
4,O=C(NC(=S)NN1CCOCC1)c1cccs1,> 4 mM (inactive)
5,COc1ccc(C)cc1S(N)(=O)=O,> 4 mM (inactive)
6,Cc1nn(CC(=O)Nc2ccccn2)c(=O)c2ccccc12,> 4 mM (inactive)
7,NC1CS(=O)(=O)CC1O (configuration not stated),> 4 mM (inactive)
8,S=c1[nH]ncn1-c1ccccc1,> 4 mM (inactive)
9,ON=c1ccc2nc3ccccc3nc2cc1,> 4 mM (inactive)
10,CN1C(=O)c2ccc(C(=O)NC3CCCCC3)cc2C1=O,> 4 mM (inactive)
11,CC(CCC(=O)O)[C@H]1CCC2C3C[C@H](O)[C@@H]4C[C@H](O)CC[C@]4(C)C3CC[C@@]21C (some centres not stated),> 4 mM (inactive)
12,Cc1nc(CC(=O)O)c(-c2ccccc2)s1,> 4 mM (inactive)
13,CC(=O)c1cc(-c2nc3ccccc3n2C)n(C)c1,> 4 mM (inactive)
14,CNc1nc(SC)nc(N2CCOCC2)n1,> 4 mM (inactive)
15,CCCCCCCCCCCCCc1ccco1,> 4 mM (inactive)
16,COc1ccccc1/C=C/CN1CCOCC1,> 4 mM (inactive)
17,Cc1ccc(-c2cc(C(=O)N3CCCC3)no2)cc1,> 4 mM (inactive)
18,C[n+]1ccn(C/C(N)=N/O)c1,> 4 mM (inactive)
19,Cc1noc(C)c1C(=O)Nc1cccnc1,> 4 mM (inactive)
20,O=C(NCCO)c1ccccc1I,> 4 mM (inactive)
21,OCc1nc2ccccc2s1,> 4 mM (inactive)
22,O=C(Nc1ccccn1)C(=O)N1CCCC1,> 4 mM (inactive)
23,O=c1c(O)cc([C@H]2Oc3cc(O)cc(O)c3C[C@H]2O)cc2c([C@H]3Oc4cc(O)cc(O)c4C[C@H]3O)cc(O)c(O)c12,> 4 mM (inactive)

row,SMILES,Kd
1,COc1ccc(-c2coc3cc(O)ccc3c2=O)cc1,> 4 mM (inactive)
2,O=c1[nH]oc2ccccc12,> 4 mM (inactive)
3,Nc1cc(=O)[nH]c(SCC(=O)Nc2nccs2)n1,> 4 mM (inactive)
4,CNC(=O)C1CC(=O)N(c2ccc(O)cc2)C1 (configuration not stated),> 4 mM (inactive)
5,O=C(O)c1cccc(-n2cccc2)c1,> 4 mM (inactive)
6,C[C@@H]1O[C@@H](O[C@H]2[C@H](Oc3cc(O)c4c(=O)cc(-c5ccc(O)cc5)oc4c3)O[C@H](CO)[C@@H](O)[C@@H]2O)[C@H](O)[C@H](O)[C@H]1O,> 4 mM (inactive)
7,NC(=O)c1ccc(N2C(=O)CCC2=O)cc1Cl,> 4 mM (inactive)
8,Cc1cc(CN2C(=O)c3ccccc3C2=O)on1,> 4 mM (inactive)
9,Cc1cc(=O)n2[nH]c(COc3ccccc3)nc2n1,> 4 mM (inactive)
10,Cc1cn2c(-c3cccnc3)nnc2s1,> 4 mM (inactive)
11,COC(=O)c1cccc2cc[nH]c12,> 4 mM (inactive)
12,Nc1cccc(S(N)(=O)=O)c1,> 4 mM (inactive)
13,O=C(O)c1cc(O)c2c(c1)C(=O)c1cc(O)cc(O)c1C2=O,> 4 mM (inactive)
14,Cc1cc(C)n(CCC(=O)O)n1,> 4 mM (inactive)
15,O=C(COc1ccccc1Cl)N1CCCC1,> 4 mM (inactive)
16,O=C(O)c1cccc2c1OCCCO2,> 4 mM (inactive)
17,CC1(C)NC(=O)N(CCOc2ccc3c(c2)CCC3)C1=O,> 4 mM (inactive)
18,O=C1CNC(=O)N1c1cccc(Cl)c1,> 4 mM (inactive)
19,CCOC(=O)c1ccc(F)c(F)c1,> 4 mM (inactive)
20,CCN1C(=O)c2cccc3c(S(N)(=O)=O)ccc1c23,> 4 mM (inactive)
21,CN(C(=O)c1cc2cccnc2n(C)c1=O)c1ccccc1,> 4 mM (inactive)
22,Cc1ccc(Nc2nc(N)nc(CC#N)n2)cc1,> 4 mM (inactive)
23,COc1ccccc1NC(=O)c1ccc(C)s1,> 4 mM (inactive)

row,SMILES,Kd
1,CC1CN(C(=O)c2ccncc2)CC(C)O1 (configuration not stated),> 4 mM (inactive)
2,Cc1cc(C)nc(/N=C(/N)Nc2cccc(F)c2)n1,> 4 mM (inactive)
3,NC(=O)CN1CCC(c2nc3ccccc3[nH]2)CC1,> 4 mM (inactive)
4,CC(C)CCCC(C)[C@H]1CCC2C3CC=C4CC(=O)CC[C@]4(C)C3CC[C@@]21C (some centres not stated),> 4 mM (inactive)
5,O=c1ccc2nc3ccccc3c(=O)n2[nH]1,> 4 mM (inactive)
6,Oc1cc(O)c2c(c1)O[C@H](c1ccc(O)c(O)c1)[C@@H](O)C2,> 4 mM (inactive)
7,Cc1noc(C)c1C(=O)NC1=NCCS1,> 4 mM (inactive)
8,COc1ccc2nc(NC(=O)c3cnccn3)sc2c1,> 4 mM (inactive)
9,O=C(Nc1ncccn1)c1cccc(F)c1,> 4 mM (inactive)
10,C(=N\c1nccs1)/c1cccnc1,> 4 mM (inactive)
11,CC(=O)O[C@@H]1CC2C(C)(C)C(=O)[C@@H]3O[C@@H]3[C@]2(C)C2CC[C@]3(C)C(=CC(=O)O[C@H]3c3ccoc3)[C@@]21C (some centres not stated),> 4 mM (inactive)
12,O=C(O)c1cnc2n(c1=O)CCS2,> 4 mM (inactive)
13,c1cncc(C(N2CCOCC2)N2CCOCC2)c1,> 4 mM (inactive)
14,O=C(O[C@@H]1Cc2c(O)cc(O)cc2O[C@@H]1c1cc(=O)c(O)c2c(O)c(O)cc([C@H]3Oc4cc(O)cc(O)c4C[C@H]3O)c2c1)c1cc(O)c(O)c(O)c1,> 4 mM (inactive)
15,Cc1ccc(/C=C2/NC(=S)NC2=O)s1,> 4 mM (inactive)
16,O=C(O[C@@H]1Cc2c(O)cc(O)cc2O[C@@H]1c1cc(O)c(O)c(O)c1-c1c([C@H]2Oc3cc(O)cc(O)c3C[C@H]2O)cc(O)c(O)c1O)c1cc(O)c(O)c(O)c1,> 4 mM (inactive)
17,c1ccc(CCNc2ncnc3nc[nH]c23)cc1,> 4 mM (inactive)
18,O=C(Nc1ccccc1)N1CCOCC1,> 4 mM (inactive)
19,COc1ccc2c(C)cc(=O)oc2c1,> 4 mM (inactive)
20,NC(CC(=O)O)C(=O)Nc1ccc(Cl)cc1 (configuration not stated),> 4 mM (inactive)
